Laboratory results as given in patent US8148424B2, “Tocopherols, tocotrienols, other chroman and side chain derivatives and uses thereof” (Research Development Foundation, priority 1998, dated 2012).

Key:
Type in all cases: cell-based, human
MCF-7 cells [1] = experiment: DNA synthesis arrest by 3H-uptake (Example 8); conditions: 5% serum, 3H-uptake at one day treatment
Description: (§1) MDA-MB-435 and MCF-7 cells at 1.5×10^5/well in 12 well plates for apoptosis and 1.5×10^4/well in 96 well plates for DNA synthesis arrest were incubated overnight in culture media and treated with α-tocopherol, α-tocotrinel, compound 1, 6-0-carboxymethyl alpha-tocotrienol (6-0-CM-α-T, 44), and vitamin E succinate (VES) at different concentrations in experimental media (2% serum for MDA-MB-435 cells and 5% serum for MCF-7 cells). DNA synthesis arrest was determined by ^3H-uptake at one day treatment and apoptosis was detected by DAPI staining at three day treatment. EC50 was calculated as the dosage of test compounds that gave 50% growth inhibition.

MDA-MB-435 cells [2] = experiment: DNA synthesis arrest by 3H-uptake (Example 8); conditions: MDA-MB-435; 2% serum; 3H-uptake at one day treatment
Description: as §1

MCF-7 cells [3] = experiment: Apoptosis by DAPI staining (Example 8); conditions: 5% serum, DAPI staining at three day treatment
Description: as §1

MDA-MB-435 cells [4] = experiment: Apoptosis by DAPI staining (Example 8); conditions: MDA-MB-435; 2% serum; DAPI staining at three day treatment
Description: as §1

A-549 = experiment: Bioassay for apoptosis (apoptotic EC50); conditions: unit not given, in µg/mL
Summary of the method: (§2)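 Apoptosis was quantified microscopically after 1, 2 or 3 days of exposure to test compounds (0.01–20 μg/mL). Cells showing condensed or fragmented nuclear chromatin on DAPI staining, or fragmented DNA by TUNEL, counted as apoptotic.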

DLD-1 = experiment: Bioassay for apoptosis (apoptotic EC50); conditions: unit not given, in µg/mL
Summary of the method: as §2

PC-3 = experiment: Bioassay for apoptosis (apoptotic EC50); conditions: PC-3; unit not given; in µg/mL
Summary of the method: as §2

Ramos = experiment: Bioassay for apoptosis (apoptotic EC50); conditions: unit not given
Summary of the method: as §2

LnCaP = experiment: Bioassay for apoptosis (apoptotic EC50); conditions: unit not given, in µg/mL
Summary of the method: as §2

Myeloma = experiment: Bioassay for apoptosis (apoptotic EC50); conditions: unit not given
Summary of the method: as §2

HL-60 = experiment: Bioassay for apoptosis (apoptotic EC50); conditions: HL-60; unit not given; in µg/mL
Summary of the method: as §2

Jurkat = experiment: Bioassay for apoptosis (apoptotic EC50); conditions: unit not given, in µg/mL
Summary of the method: as §2

DU-145 = experiment: Bioassay for apoptosis (apoptotic EC50); conditions: unit not given, in µg/mL
Summary of the method: as §2

RL-95-2 = experiment: Bioassay for apoptosis (apoptotic EC50); conditions: RL-95-2; unit not given; in µg/mL
Summary of the method: as §2

MDA-MB-435 = experiment: Bioassay for apoptosis (apoptotic EC50); conditions: MDA-MB-435; unit not given; in µg/mL
Summary of the method: as §2

MCF-7 = experiment: Bioassay for apoptosis (apoptotic EC50); conditions: MCF-7; unit not given; in µg/mL
Summary of the method: as §2

ME-180 = experiment: Bioassay for apoptosis (apoptotic EC50); conditions: ME-180; unit not given; in µg/mL
Summary of the method: as §2

Raji = experiment: Bioassay for apoptosis (apoptotic EC50); conditions: unit not given
Summary of the method: as §2

HT-29 = experiment: Bioassay for apoptosis (apoptotic EC50); conditions: unit not given, in µg/mL
Summary of the method: as §2

MDA-MB-231 = experiment: Bioassay for apoptosis (apoptotic EC50); conditions: MDA-MB-231; unit not given; in µg/mL
Summary of the method: as §2

- EC50 (MCF-7 cells [1]): 22 µM
- EC50 (MDA-MB-435 cells [2]): 17 µM
- EC50 (MCF-7 cells [3]): 40 µM
- EC50 (MDA-MB-435 cells [4]): 36 µM
- apoptotic EC50 (A-549): 20-30
- apoptotic EC50 (DLD-1): 10-20
- apoptotic EC50 (PC-3): 10-20
- apoptotic EC50 (Ramos): 10-20
- apoptotic EC50 (LnCaP): 5-10
- apoptotic EC50 (Myeloma): 10-20
- apoptotic EC50 (HL-60): 10-20
- apoptotic EC50 (Jurkat): 10-20
- apoptotic EC50 (DU-145): 10-20
- apoptotic EC50 (RL-95-2): 10-20
- apoptotic EC50 (MDA-MB-435): 5-10
- apoptotic EC50 (MCF-7): 10-20
- apoptotic EC50 (ME-180): 10-20
- apoptotic EC50 (Raji): 10-20
- apoptotic EC50 (HT-29): 5-10
- apoptotic EC50 (MDA-MB-231): 5-10
Structure (SMILES): Cc1c(C)c2c(c(C)c1OC(=O)CCC(=O)O)CC[C@@](C)(CCC[C@H](C)CCC[C@H](C)CCCC(C)C)O2 [VES, RRR-α-tocopherol succinate, reference compound]
